From patent US5393897A, “Isolation and structure of spongistatins 5,7,8 and 9” (Arizona Board of Regents acting on behalf of Arizona State …, priority 1993, dated 1995)

Columns and labels:
Format in all cases: cell-based
[1] = test system: Melanoma; test: NCI cell line panel, melanoma lines, value not assignable to a single line; conditions: Homo sapiens, 7 values printed for 8 cell lines, in printed order, read-out: Log10 TGI (converted)
Excerpt: (§1) Only two hundred years ago, many diseases ravaged humankind. Many of these diseases now have been controlled or eradicated. In the development of the means to treat or control these diseases, work with the appropriate common experimental animals was of critical importance. With the various types of cancers, and with the HIV virus, such work is presently ongoing. The research for the treatment of various types of cancer is coordinated in the United States by the National Cancer Institute (NCI). NCI, as a government entity, has been charged with assisting anti-cancer research. To establish whether a substance has anti-cancer activity, NCI has established a variety of protocols, one of which involves testing the candidate substance against a cell line panel containing 60 human tumor cell lines. This protocol has been verified and is generally accepted throughout the scientific community. This protocol and the established statistical means of evaluating the results obtained therefrom have been fully described in the literature. See Principles & Practice of Oncology PPO Updates, Volume 3, Number 10, October 1989, by Michael R. Boyd, M.D., Ph.D., for an in depth description of the test protocol. […]

[2] = test system: Breast Cancer; test: NCI cell line panel, breast cancer line, BT-549 or T-47D not assignable; conditions: Homo sapiens, last of 7 values for 8 lines, read-out: Log10 GI50 (converted)
Excerpt: as §1

[3] = test system: MDA-MB-435; test: NCI cell line panel; conditions: Homo sapiens, Breast Cancer, read-out: Log10 GI50 (converted)
Excerpt: (§2) Only two hundred years ago, many diseases ravaged humankind. Many of these diseases now have been controlled or eradicated. In the development of the means to treat or control these diseases, work with the appropriate common experimental animals was of critical importance. With the various types of cancers, and with the HIV virus, such work is presently ongoing. The research for the treatment of various types of cancer is coordinated in the United States by the National Cancer Institute (NCI). NCI, as a government entity, has been charged with assisting anti-cancer research. To establish whether a substance has anti-cancer activity, NCI has established a variety of protocols, one of which involves testing the candidate substance against a cell line panel containing 60 human tumor cell lines. This protocol has been verified and is generally accepted throughout the scientific community. This protocol and the established statistical means of evaluating the results obtained therefrom have been fully described in the literature. See Principles & Practice of Oncology PPO Updates, Volume 3, Number 10, October 1989, by Michael R. Boyd, M.D., Ph.D., for an in depth description of the test protocol. The statistical analysis is explained in "Display and Analysis of Patterns of Differential Activity of Drugs Against Human Tumor Cell Lines: Development of Means Graph and COMPARE Algorithm" Journal of the National Cancer Institute Reports Vol. 81, No. 14, Pg. 1088, Jul. 14, 1989, by K. D. Paull et al. Both of these references are incorporated herein by this reference thereto. The effectiveness and validity of the NCI in vitro protocol continues to be verified.

[4] = test system: NCI-H522; test: NCI cell line panel; conditions: Homo sapiens, Non-Small Cell Lung Cancer, read-out: Log10 GI50 (converted)
Excerpt: as §2

[5] = test system: SK-MEL-2; test: NCI cell line panel; conditions: Homo sapiens, Melanoma, read-out: Log10 GI50 (converted)
Excerpt: as §2

C=C/C=C/C(O)CC(=C)CC1OC2C(C)C(OC(=O)CC3CC(O)CC4(CC(C)(O)CC(C=C5COC(C(C)C(=O)CC6CC(OC)CC7(CC(O)CC(/C=C\CCCC8OC(O)(CC(O)C8C)C2O)O7)O6)C5C)O4)O3)C1O (centres unmarked) [spongistatin 7] gave an IC (TGI) [1] of 0.0468 µM, a GI50 [2] of 100 nM and a GI50 [3] of 0.0191 nM. It also gave a GI50 [4] of 0.0282 nM and a GI50 [5] of 0.347 nM.
